These results are taken from patent US12509421B2, “Preparation and application of deuterated 4-phenyl-4-piperidinols” (priority 2022, dated 2025).

Counter-ions that a name gives are not always drawn. Like-named read-outs stand apart in the source and are kept apart here.

In data set [1] the test system is ICR mice. Briefly: Evaluation of side effects of constipation (defecation time, number, weight). In kind it is in vivo. Conditions: 7.5 mg/kg. As for the experimental part: Constipation side effect is a common side effect of opioid drugs. This patent evaluates the possibility of constipation side effect by the influence of the compound on defecation time, defecation quantity and defecation weight of experimental animals.
ICR mice are randomly divided into 6 groups with 10 mice in each group after adaptive feeding. Fasting for 16-24 h, without stopping drinking, the blank control group is given solvent, during which the normal diet is: (1) the blank control group; (2) Compound diphenoxylate (7.5 mg/kg) group; (3) Low dose (1 mg/kg) group; (4) High dose (5 mg/kg) group of the compound to be tested.
After administration for 30 minutes, the mice in each group are given Chinese ink by gavage. After administration, the mice are kept in a single cage, and the excretion time of the first black stool is recorded. The number and weight (wet weight) of defecation particles in each mouse within 5 hours after administration are recorded. each group of mice are placed in an IVC cage with clean filter paper. The feces of each mouse are collected, put into a sterile 1.5 ml EP tube and stored in an ice box. During the collection, the number of defecation particles of each mouse is recorded, and the wet weight is weighed. After the collected feces are dried, the dry weight of the feces is recorded. Drying conditions: put fresh feces in an oven and bake at 100° C. for 5-10 minutes until the dry weight of feces is constant. The following formula is used to calculate the water content of feces, and the water content of feces (%)=(wet feces mass−dry feces mass)/wet feces mass×100%.
The data required for measurement and observation in this experiment are recorded in the corresponding table. All data are statistically processed by Microsoft Excel, and expressed as “mean standard error”. The data of each group are statistically analyzed by SPSS software package.

The target of data set [2] is hERG potassium channel (Homo sapiens, UniProt Q12809). Briefly: hERG potassium channel whole-cell patch clamp (HEK293). More on the design: expressed in transfected cells; host or cells: HEK293 cell line. In kind it is cell-based. Conditions: for IC50: HEK293 cells stably expressing hERG, whole-cell patch clamp, room temperature, read-out: Half-inhibition concentration of compounds to be tested on hERG (IC50). From the text: The rapidly activated potassium channel encoded by human ether-a-go-go-related gene (hERG) is an important ion channel involved in the formation of phase 3 repolarization of myocardial action potential. […] Drug-induced delayed ventricular repolarization may cause fatal arrhythmia-torsade de pointes in some cases. According to statistics, about 25-40% of the lead compounds show different degrees of hERG-related toxicity, and many drugs are withdrawn from the market because they may lead to the risk of QT interval extension. At present, National Medical Products Administration also requires hERG/IKr safety evaluation data before clinical trial application (IND) of new drugs under study. • 1. Whole-cell patch clamp technique is used to study the inhibitory effect of compounds on hERG potassium channels: • 1) the compound to be tested is stored with physiological saline prepared into 10 mM liquid. The test stock solution is diluted with physiological saline into 3 mM, 1 mM and 0.3 mM diluents in turn. […] The old culture medium removed and is washed once with PBS, then added with 1 mL TrypLE™ Express solution and incubated at 37° C. for about 0.5 minutes. When the cells are detached from the bottom of the dish, about 5 ml complete medium preheated is added at 37° C. The cell suspension is gently blown with a straw to separate the aggregated cells. The cell suspension is transferred to a sterile centrifuge tube and centrifuged at 1000 rpm for 5 minutes to collect cells. […] The clamping voltage is depolarized from −80 mV to −50 mV for 0.5 seconds (as leakage current detection), then stepped to 30 mV for 2.5 seconds, and then quickly recovered to −50 mV for 4 seconds, which can excite the tail current of hERG channel. Data are collected repeatedly every 10s to observe the effect of drugs on hERG tail current. 0.5 seconds-50 mV stimulation is used as leakage current detection. The test data are collected by IPA amplifier (Sutter Instrument) and stored in SutterPatch software.
Capillary glass tube is drawn into recording electrode by microelectrode drawing instrument. Under the inverted microscope, the microelectrode manipulator is operated to contact the recording electrode with the cell, and negative pressure suction is given to form a GΩ seal. After the GΩ seal is formed, rapid capacitance compensation is carried out, and then negative pressure is continuously applied to break the cell membrane, forming a whole cell recording mode. Then the slow capacitance is compensated and the film capacitance and series resistance are recorded. No leakage compensation is given.
When the hERG current recorded in the whole cell is stable, the drug is administered, and the next concentration is detected after each drug concentration acts for 5 minutes (or the current is stable), and multiple concentrations are detected for each test compound. The cover glass covered with cells is placed in the recording bath in an inverted microscope, and the test compound and the external liquid containing no compound flowed through the recording bath from low concentration to high concentration by gravity perfusion method, so as to act on the cells, and liquid exchange is carried out by using a vacuum pump during recording. The current detected by each cell in the external fluid without compounds is used as its own control group.
At least two cells are used to detect each concentration independently and repeatedly twice. All electrophysiological tests are conducted at room temperature.
Firstly, the current after each drug concentration and the blank control current are standardized
[formula] followed by the calculation of the inhibition rate
[formula] corresponding to each drug concentration, the average and standard deviation for each concentration, and the semi-inhibition concentration of each compound with the following equation: […]
The dose-dependent effect is nonlinear fitted by the above equation, and IC50 is semi-inhibitory concentration.

Data set [3] relates to Female Kunming mice. Briefly: Hot plate analgesia test in mice. In kind it is in vivo. Conditions: 55° C. hot plate. As for the experimental part: Female Kunming mice weighing about 20 g are placed on a hot plate instrument preheated to 55° C., and the latency of licking hind feet or lifting hind feet is used as the pain threshold index. Animals are screened before the experiment, and animals with latency less than 5 s or more than 30 s are excluded. To prevent foot burns, the longest observation time is set to 60s. The basic pain threshold is the average of two measurements, and the interval between the two measurements is 5 minutes. The pain threshold of mice in each group is determined at 15 minutes, 30 minutes, 60 minutes and 120 minutes after intraperitoneal administration. The effective percentage of analgesia (% MPE) is calculated according to the following formula
[formula] According to the effective percentage of analgesia, the ED50 value is calculated by graphpad prism 5.0 software.

Data set [4] deals with T1, δOR (Homo sapiens, UniProt P41143).
T1 construct: expressed in transfected cells; host or cells: CHO cells
Briefly: Opioid receptor competitive binding test, δOR. Conditions: [3H]-labeled ligand, CHO cell membranes, ± SD of three measurements; for δOR binding rate: compound at 10 μM. As for the experimental part: (§1) CHO cells expressing p opioid receptor, δ opioid receptor and K opioid receptor are cultured in a 10 cm^2 Petri dish (F-12 medium+10% newborn bovine serum) for several days, and the culture solution is sucked after the cells grew to the bottom of the dish. 3 ml PBS/EDTA solution (0.1M NaCl, 0.01M NaH2PO4, 0.04% EDTA) is added for digestion for 3-5 minutes. The cells are blown with a straw to get fall off completely, collected in a 40 ml centrifuge tube, centrifuged at 5000 rpm for 5 minutes, and removed with the supernatant. The centrifuge tube is added with ice-cold homogenate (50 mM HEPES PH 7.4, 3 mM MgCl2, 1 mM EGTA). The solution and precipitate are transferred to homogenizer for homogenization; Then the homogenate is transferred into a centrifuge tube, centrifuged at 18000 rpm for 15 minutes, and centrifuged twice; the obtained precipitate is added with an appropriate amount of buffer solution of 50 mM Tris-HCl and pH 7.4, homogenized and sub-packaged in centrifuge tubes. The product is stored in a refrigerator at −70° C. for later use.
(§2) 20-30 μg expressed membrane receptor protein and [3H]-labeled ligand (1-2 nM) are added to the total binding tube, added with 1 μM of corresponding ligand to the corresponding nonspecific binding tube. Various screened opioid ligand drugs (see the drug compounds in Table 1 below) are added to the sample tube with 100 μL final volume. The sample is incubated at 30° C. for 30 minutes, and the reaction is terminated in ice water. The glass fiber filter paper gF/C (whatman) is used for negative pressure filtration on Millipore sample collector. The sample is eluted with 4 ml 50 mm tris-HCl (pH 7.4) for three times, dried with the filter paper, put in 0.5 ml Eppendorf tube and added with 0.5 ml lipophilic scintillation liquid. The radioactive intensity is measured with PERKIN ELMER PRI-CARB 2910 liquid scintillation counter with calculation of the inhibition rate. The experiment is repeated for more than three times, with three compound tubes in each group. Inhibition rate(or binding rate)=(total binding rate dpm−sample tube dpm)/(total binding tube dpm-nonspecific binding tube dpm)×100%
(§3) IC50 is calculated with Prism 5.0 software. The Ki value is calculated according to the following formula: Ki=IC50/(1^+[L]/Kd), wherein [L] is the concentration of the added labeled ligand, and Kd is the equilibrium dissociation parameter of the labeled ligand.

Data set [5] concerns the target T2, μOR (Homo sapiens, UniProt P35372).
T2 construct: expressed in transfected cells; host or cells: CHO cells
Briefly: Opioid receptor competitive binding test, μOR. The settings on record: [3H]-labeled ligand, CHO cell membranes, ± SD of three measurements; for μOR binding rate: compound at 10 μM. On the procedure:
as §1, §2, §3

Data set [6] has as its target T3, κOR (Homo sapiens, UniProt P41145).
T3 construct: expressed in transfected cells; host or cells: CHO cells
Briefly: Opioid receptor competitive binding test, κOR. Conditions: [3H]-labeled ligand, CHO cell membranes, ± SD of three measurements; for κOR binding rate: compound at 10 μM. As for the experimental part:
as §1, §2, §3

`CCOC(=O)C1(c2ccccc2)CCN(CCC(C#N)(c2ccccc2)c2ccccc2)CC1` [Diphenoxylate, reference compound]: the “Number of defecating animals” value in data set [1] (10 mice per group, within 5 hours) is 10. The compound further showed a Defecation time in data set [1] (first black stool, x ± SE, only animals that defecate within 5 hours) of 148.4 ± 7.9 min. Moreover, the “water content of feces” value in data set [1] (only animals that defecate within 5 hours, x ± SE) amounted to 41.4 ± 3.7%. The Fecal weight in data set [1] (within 5 hours, x ± SE) was 0.3005 ± 0.0289 g.
For `CN(C)C[C@@H]1CN(S(=O)(=O)Cc2ccccc2)CC[C@@]1(O)c1cccc(O)c1.Cl` [Example 22 of CN201911076305.X, reference compound], the “hERG inhibition grade” value in data set [2] (listed as Example 22 of patent CN201911076305.X, hydrochloride) is recorded as “moderate inhibitory effects on hERG”; in data set [2] (listed as example 22 of the prior art of CN201911076305.X, hydrochloride), “μM(Moderate intensity inhibition)”.
As for `[2H]C([2H])([2H])Oc1cccc([C@]2(O)CCN(S(=O)(=O)Cc3ccccc3)C[C@H]2CN(C)C([2H])([2H])[2H])c1` [II-6hydrochloride], the ED50 in data set [3] (Mus musculus, ip, intraperitoneal) was 0.79 mg/kg. The same compound gave a δOR binding rate in data set [4] of 10.5 ± 1.7%. The compound further had a μOR binding rate in data set [5] of 28.4 ± 2.0%. In data set [6], this compound displayed a κOR binding rate of 14.5 ± 3.1%.
With `CN(C)C[C@@H]1CN(S(=O)(=O)Cc2ccccc2)CC[C@@]1(O)c1cccc(O)c1.Cl` [Example 22 of CN201911076305.X, (3R, 4S)-1-(benzylsulfonyl)-3-(dimethylamino)methyl)-4-(3-hydroxyphenyl)-4-piperidinol hydrochloride, reference compound], the Ki in data set [4] was determined as 1.1 ± 0.042 µM; in data set [5], 0.00017 µM; in data set [6], 0.0337 ± 0.00326 µM.
Consider `[2H]C([2H])([2H])Oc1cccc([C@]2(O)CCN(C(=O)Cc3cc(F)c(F)cc3F)C[C@H]2CN(C)C([2H])([2H])[2H])c1` [II-12hydrochloride], for which, in data set [3] (10 mg/kg, intraperitoneal), the “Maximum analgesic effective percentage (% MPE), hot plate” value came to 100%. The compound further had a δOR binding rate in data set [4] of 12.0 ± 3.3%. In addition, the μOR binding rate in data set [5] is 26.3 ± 1.2%. In data set [6], this compound came in with a κOR binding rate of 13.6 ± 1.9%.
Take `[2H]C([2H])([2H])Oc1cccc(C2(O)CCN(C(=O)Cc3cc(F)c(F)cc3F)CC2CN(C)C([2H])([2H])[2H])c1` (centres unmarked) [I-6hydrochloride]: the “Maximum analgesic effective percentage (% MPE), hot plate” value in data set [3] (10 mg/kg, intraperitoneal) amounted to 100%. Also, the δOR binding rate in data set [4] was 11.6 ± 1.7%. Further, the μOR binding rate in data set [5] was found to be 21.0 ± 3.0%. For the same compound, in data set [6], the κOR binding rate worked out at 20.5 ± 2.3%.
The corresponding values for `[2H]C([2H])([2H])Oc1cccc(C2(O)CCN(S(=O)(=O)Cc3ccccc3)CC2CN(C)C([2H])([2H])[2H])c1` (centres unmarked) [I-2hydrochloride] are 100%, 10.9 ± 1.2%, 24.75 ± 3.1% and 23.8 ± 1.9%.
For “(3R,4S)-1-(benzylsulfonyl)-4-(3-hydroxyphenyl)-3-(((methyl(methyl-d3)amino)methyl)-4-piperidinol [II-2hydrochloride]”, the “hERG inhibition grade” value in data set [2] is “μM((Weak inhibition)”. Moreover, the IC50 in data set [2] (listed as II-2) worked out at 25.1 µM; in data set [2] (listed as Il-2hydrochloride), 14.7 µM. Moreover, the Ki in data set [4] was found to be 0.482 ± 0.0284 µM; in data set [5] it was 0.00012 µM; in data set [6] it was 0.0256 ± 0.00272 µM.
Regarding `COc1cccc(C2(O)CCCCC2CN(C)C)c1` (centres unmarked) [Tramadol, reference compound], in data set [3] (50 mg/kg dosage), the “Maximum analgesic effective percentage (% MPE), hot plate” value was 64.5% ((50 mg/kg/dosage). In data set [4], the δOR binding rate is recorded as 0%. Besides, the μOR binding rate in data set [5] is on record as 6.0 ± 0.4%. Also, in data set [6], the κOR binding rate turned out to be 0%.
